From patent publication EP0063525A1, “Dibenzazepine tetracyclic derivatives, process for their preparation and pharmaceutical compositions containing them” (CENTRE NATIONAL DE LA RECHERCHE SCIENTIFIQUE (CNRS), priority 1981, dated 1982)
Read-outs that look alike come from different tables or passages of the source.

Assays:
[1] = test system: Souris; experiment: tetrabenazine hypothermia; assay type: in vivo
Description: (§1) Ce test permet de révéler également une activité antidépressive avec l'avantage d'une lecture plus rapide qu'avec la réserpine.
Les produits sont injectés 30 minutes avant l'administration de tétrabénazine.
Les températures sont relevées aux temps : 0, 30 minutes, 60 minutes, 90 minutes et 120 minutes.
(§2) Les souris sont réparties par lots de 5.
Les températures sont relevées avant l'injection de tétrabénazine, 30 minutes, 60 minutes, 90 minutes et 120 minutes après.
(§3) Le lot témoin comprend 20 souris.

[2] = test system: Souris; experiment: antireserpine activity: reserpine hypothermia; assay type: in vivo; conditions: réserpine 5 mg/kg i.p. 17 h before; for change in vivo at 50 mg/kg / change in vivo at 150 mg/kg: ip, 4 h, read-out: % d'augmentation par rapport aux témoins
Description: On note ensuite les températures témoins (réserpine), puis les températures 1, 2, 3 et 4 heures après l'administration des produits étudiés.
Les animaux sont répartis en lots de 4 animaux et reçoivent par voie intrapéritonéale la réserpine à une dose de 5 mg/kg. 17 heures après cette injection, on mesure la température corporelle de l'animal à l'aide d'une sonde thermocouple introduite dans le rectum; chaque lot reçoit ensuite la substance par voie intrapéritonéale. Le lot témoin reçoit la même quantité de solvant et par la même voie. La température corporelle est ensuite mesurée toutes les heures pendant 4 heures.
Les résultats sont rassemblés dans un tableau récapitulatif-où sont indiqués : • - la température moyenne pour chaque lot relevée 17 heures après l'injection de la réserpine, • - la moyenne des variations de température pour chaque lot relevées 1,2, 3 et 4 heures après l'injection de la substance étudiée, • - la somme des variations de températures pendant 4 heures, • - le pourcentage d'augmentation de la température pour chaque produit par rapport aux témoins.

[3] = acute toxicity in the mouse, intraperitoneal; assay type: in vivo, Souris; conditions: mouse, in vivo, ip, voie intrapéritonéale; for LD50 at 48 h: souris femelles, read-out: DL 50; for mortality at 48 h: read-out: Mortalité %
Excerpt: (§4) Les produits ont été administrés par voie intrapéritonéale à des souris femelles dont le poids variait de 18 à 30 g.
(§5) Les animaux injectés ont été maintenus dans une salle thermostatée, nourris et abreuvés à volonté.
(§6) La mortalité a été relevée à 1 heure, 4 heures, 24 heures et 48 heures.

[4] = test system: souris femelles; experiment: acute toxicity in the mouse, intraperitoneal; assay type: in vivo; conditions: voie intrapéritonéale
Excerpt: as §4, §5, §6

[5] = test system: Souris; experiment: tetrabenazine ptosis; assay type: in vivo
Description: as §1, §2
Le ptosis est noté avant l'injection de tétrabénazine, 30 minutes, 60 minutes, 90 minutes et 120 minutes après.
On a adopté la notation suivante : • - 0 : pour un oeil ouvert, • - 1 : pour un oeil fermé au quart, • - 2 : pour un oeil fermé à moitié, • - 3 : pour un oeil fermé aux trois-quarts, • - 4 : pour un oeil fermé complètement.
as §3

[6] = product i.p. 80 mg/kg 30 min before tétrabénazine 32 mg/kg i.v.
[7] = product i.p. 50 mg/kg 30 min before tétrabénazine 32 mg/kg i.v.
[8] = 100 mg/kg, dead mice of the group
[9] = 150 mg/kg, dead mice of the group
[10] = 200 mg/kg, dead mice of the group
[11] = 250 mg/kg, dead mice of the group
[12] = product i.p. 50 mg/kg 30 min before tétrabénazine 32 mg/kg i.v., score 0-4 per eye
[13] = 50 mg/kg, dead mice of the group
[14] = 500 mg/kg, dead mice of the group
[15] = product i.p. 100 mg/kg 30 min before tétrabénazine 32 mg/kg i.v., score 0-4 per eye
[16] = 75 mg/kg, dead mice of the group
[17] = 125 mg/kg, dead mice of the group
[18] = product i.p. 150 mg/kg 30 min before tétrabénazine 32 mg/kg i.v.
[19] = 300 mg/kg, dead mice of the group
[20] = 750 mg/kg, dead mice of the group
[21] = 1500 mg/kg, dead mice of the group
[22] = product i.p. 150 mg/kg 30 min before tétrabénazine 32 mg/kg i.v., score 0-4 per eye

Compound: O=C(O)CCCCCCNC1c2ccccc2CCc2ccccc21 [Aminep-tine, amineptine, reference compound]
- inhibition in vivo at 80 mg/kg ([1]; ip, 2 h, hypothermie, product i.p. 80 mg/kg 30 min before tétrabénazine 32 mg/kg i.v., read-out: % de protection): 51%
- Température après tétrabénazine 30 minutes [1, 6]: -1,8
- Température après tétrabénazine 60 minutes [1, 6]: -1,8
- Température après tétrabénazine 90 minutes [1, 6]: -1,1
- Température après tétrabénazine 120 minutes [1, 6]: -0,2
- Température après tétrabénazine Total [1, 6]: -4,2
- variation de température T=1h ([2]; product i.p. 80 mg/kg): +1,5
- variation de température T= 2h ([2]; product i.p. 80 mg/kg): +1,6
- variation de température T=3h ([2]; product i.p. 80 mg/kg): +1
- variation de température T=4h ([2]; product i.p. 80 mg/kg): +0,1

Compound: CN(C)CCCN1c2ccccc2C2ON=C(c3ccccc3)C2c2ccccc21 (stereo not shown) [compound 3, (γ-diméthylaminopropyl)-8 phényl-3 trihydro-3a, 8,12b (dibenzo [b,f]isoxazolo [4,5-d])azépine]
- inhibition in vivo at 50 mg/kg ([1]; ip, 2 h, hypothermie, product i.p. 50 mg/kg 30 min before tétrabénazine 32 mg/kg i.v., read-out: % de protection): 40%
- Température après tétrabénazine 30 minutes [1, 7]: -0,9
- Température après tétrabénazine 60 minutes [1, 7]: -1,2
- Température après tétrabénazine 90 minutes [1, 7]: -2,6
- Température après tétrabénazine 120 minutes [1, 7]: -0,4
- Température après tétrabénazine Total [1, 7]: -5,1
- change in vivo at 50 mg/kg ([2]; product i.p. 50 mg/kg): 125%
- variation de température T= 2h ([2]; product i.p. 50 mg/kg): +0,9
- variation de température T=3h ([2]; product i.p. 50 mg/kg): +0,9
- variation de température T=4h ([2]; product i.p. 50 mg/kg): +0,1
- LD50 at 48 h [3]: 200 mg/kg
- mortality at 48 h ([3]; 100 mg/kg): 0%
- mortality at 48 h ([3]; 150 mg/kg): 0%
- mortality at 48 h ([3]; 200 mg/kg): 40%
- mortality at 48 h ([3]; 250 mg/kg): 100%
- Mortalité en 1 heure [4, 8]: 0
- Mortalité en 48 h. [4, 8]: 0
- Mortalité en 1 heure [4, 9]: 0
- Mortalité en 48 h. [4, 9]: 0
- Mortalité en 1 heure [4, 10]: 2
- Mortalité en 48 h. [4, 10]: 2
- Mortalité en 1 heure [4, 11]: 5
- Mortalité en 48 h. [4, 11]: 5
- inhibition in vivo at 50 mg/kg ([5]; ip, 2 h, ptosis, product i.p. 50 mg/kg 30 min before tétrabénazine 32 mg/kg i.v., read-out: % de protection): 32%
- Ptosis Total [5, 7]: 20,4
- Ptosis 30 minutes [5, 12]: 1,6
- Ptosis 60 minutes [5, 12]: 5,2
- Ptosis 90 minutes [5, 12]: 6,8
- Ptosis 120 minutes [5, 12]: 6,8

Compound: CN(C)CCN1c2ccccc2-c2onc(-c3ccccc3)c2-c2ccccc21 [compound 17, (β-diméthylaminoéthyl)-8 phényl-3 (dibenzo [b,f]isoxazolo [4,5-d]) 8H azépine]
- change in vivo at 50 mg/kg ([2]; product i.p. 50 mg/kg): 0%
- change in vivo at 150 mg/kg ([2]; product i.p. 150 mg/kg): 300%
- LD50 at 48 h [3]: 175 mg/kg
- mortality at 48 h ([3]; 50 mg/kg): 0%
- mortality at 48 h ([3]; 100 mg/kg): 0%
- mortality at 48 h ([3]; 150 mg/kg): 0%
- mortality at 48 h ([3]; 200 mg/kg): 100%
- mortality at 48 h ([3]; 250 mg/kg): 100%
- Mortalité en 1 heure [4, 13]: 0
- Mortalité en 48 h. [4, 13]: 0
- Mortalité en 1 heure [4, 8]: 0
- Mortalité en 48 h. [4, 8]: 0
- Mortalité en 1 heure [4, 9]: 0
- Mortalité en 48 h. [4, 9]: 0
- Mortalité en 1 heure [4, 10]: 5
- Mortalité en 48 h. [4, 10]: 5
- Mortalité en 1 heure [4, 11]: 4
- Mortalité en 48 h. [4, 11]: 5

Compound: CC(CN(C)C)CN1c2ccccc2-c2onc(-c3ccccc3)c2-c2ccccc21 (stereo not shown) [compound 19, (méthyl-2 diméthylamino-3 propyl)-8 phényl-,3 (dibenzo [b ,f]isoxazolo [3 ,4-d]) 8H azépine]
- change in vivo at 150 mg/kg ([2]; product i.p. 150 mg/kg): 110%
- variation de température T=1h ([2]; product i.p. 150 mg/kg): +3,4
- variation de température T= 2h ([2]; product i.p. 150 mg/kg): +0,7
- variation de température T=3h ([2]; product i.p. 150 mg/kg): +0,7
- variation de température T=4h ([2]; product i.p. 150 mg/kg): -0,6
- LD50 at 48 h [3]: 175 mg/kg
- mortality at 48 h ([3]; 50 mg/kg): 0%
- mortality at 48 h ([3]; 100 mg/kg): 0%
- mortality at 48 h ([3]; 250 mg/kg): 60%
- mortality at 48 h ([3]; 500 mg/kg): 100%
- Mortalité en 1 heure [4, 13]: 0
- Mortalité en 48 h. [4, 13]: 0
- Mortalité en 1 heure [4, 8]: 0
- Mortalité en 48 h. [4, 8]: 0
- Mortalité en 1 heure [4, 11]: 1
- Mortalité en 48 h. [4, 11]: 3
- Mortalité en 1 heure [4, 14]: 5
- Mortalité en 48 h. [4, 14]: 5
- inhibition in vivo at 100 mg/kg ([5]; ip, 2 h, ptosis, product i.p. 100 mg/kg 30 min before tétrabénazine 32 mg/kg i.v., read-out: % de protection): 16%
- Ptosis Total ([5]; product i.p. 100 mg/kg 30 min before tétrabénazine 32 mg/kg i.v.): 25,3
- Ptosis 30 minutes [5, 15]: 5
- Ptosis 60 minutes [5, 15]: 6,3
- Ptosis 90 minutes [5, 15]: 6,7
- Ptosis 120 minutes [5, 15]: 7,3

Compound: CN(C)CCCN1c2ccccc2C=Cc2ccccc21 [compound 21, (α-diméthylaminopropyl)-5 dibenzo [b,f] 5H azépine, reference compound]
- change in vivo at 50 mg/kg ([2]; product i.p. 50 mg/kg): 30%
- variation de température T= 2h ([2]; product i.p. 50 mg/kg): -0,1
- variation de température T=3h ([2]; product i.p. 50 mg/kg): +0,2
- variation de température T=4h ([2]; product i.p. 50 mg/kg): +0,5
- LD50 at 48 h [3]: 100 mg/kg
- mortality at 48 h ([3]; 50 mg/kg): 0%
- mortality at 48 h ([3]; 75 mg/kg): 0%
- mortality at 48 h ([3]; 125 mg/kg): 100%
- mortality at 48 h ([3]; 250 mg/kg): 100%
- Mortalité en 1 heure [4, 13]: 0
- Mortalité en 48 h. [4, 13]: 0
- Mortalité en 1 heure [4, 16]: 0
- Mortalité en 48 h. [4, 16]: 0
- Mortalité en 1 heure [4, 17]: 5
- Mortalité en 48 h. [4, 17]: 5
- Mortalité en 1 heure [4, 11]: 5
- Mortalité en 48 h. [4, 11]: 5

Compound: ( [1'-(β-hydroxyéthyl-4') pipérazinyl]-3propyl)-8 diphényl-1,3 tétrahydro-1,3a, 8,12b(dibenzo[b,f] pyrazolo [3,4-d])azépine [compound 10]
- % de protection ([1]; hypothermie, product i.p. 150 mg/kg 30 min before tétrabénazine 32 mg/kg i.v.): 53%
- Température après tétrabénazine 30 minutes [1, 18]: -1,7
- Température après tétrabénazine 60 minutes [1, 18]: -1,9
- Température après tétrabénazine 90 minutes [1, 18]: +0,6
- Température après tétrabénazine 120 minutes [1, 18]: -1
- Température après tétrabénazine Total [1, 18]: -4
- % d'augmentation par rapport aux témoins ([2]; product i.p. 150 mg/kg): 205%
- variation de température T= 2h ([2]; product i.p. 150 mg/kg): +2,4
- variation de température T=3h ([2]; product i.p. 150 mg/kg): +1,4
- variation de température T=4h ([2]; product i.p. 150 mg/kg): +0,6
- DL 50 ([4]; souris femelles, 2880 min): >750 mg/kg
- Mortalité % ([4]; 200 mg/kg, 2880 min): 0%
- Mortalité en 1 heure [4, 10]: 0
- Mortalité en 48 h. [4, 10]: 0
- Mortalité % ([4]; 300 mg/kg, 2880 min): 0%
- Mortalité en 1 heure [4, 19]: 0
- Mortalité en 48 h. [4, 19]: 0
- Mortalité % ([4]; 750 mg/kg, 2880 min): 0%
- Mortalité en 1 heure [4, 20]: 0
- Mortalité en 48 h. [4, 20]: 0
- Mortalité en 1 heure [4, 21]: 0
- Mortalité en 48 heures [4, 21]: 1
- Ptosis Total [5, 18]: 20,8
- Ptosis 30 minutes [5, 22]: 1
- Ptosis 60 minutes [5, 22]: 6
- Ptosis 90 minutes [5, 22]: 5,8
- Ptosis 120 minutes [5, 22]: 8
- Ptosis T = 0 ([5]; product i.p. 150 mg/kg, before tétrabénazine, score 0-4 per eye): 0
- % de protection ([5]; ptosis, product i.p. 150 mg/kg 30 min before tétrabénazine 32 mg/kg i.v.): 31%
